Measured values from EPA's ToxValDB 9.5.

Experiments:
Mus musculus = conditions: subchronic, duration: 90 days, inhalation, Crl:CD-1 (ICR) BR
Rattus norvegicus = conditions: chronic, duration: 2 years, inhalation; for LOAEL / NOAEL: Crl:CD BR; for NEL / LEL: Crl:CD(SD) BR
[1] = F, General Toxicity: Whole Body: Body Weight Change + General Toxicity: Whole Body: Clinical Observations + General Toxicity: Whole Body: …
[2] = F, Nervous: Brain: Brain Weight, Absolute + Nervous: Brain: Brain Weight, Relative
[3] = M, Blood: Triglycerides (TRIG), Blood + Whole Body: Mortality
[4] = M, General Toxicity: Whole Body: Body Weight Change + General Toxicity: Whole Body: Clinical Observations + General Toxicity: Whole Body: …
[5] = M, Nervous: Brain: Brain Weight, Absolute + Nervous: Brain: Brain Weight, Relative
[6] = F, Developmental: Whole Body: Survival + General Toxicity: Whole Body: Body Weight Change + Hepatic: Liver: Liver Histopathology + Hepatic: …
[7] = F, Blood: Eosinophils + Blood: Monocytes
[8] = F, Blood: Sorbitol Dehydrogenase (SDH), Blood
[9] = F, Liver: Liver Weight, Absolute
[10] = F, Mammary Gland: Mammary Gland Fibroadenoma
[11] = M, Developmental: Whole Body: Survival + General Toxicity: Whole Body: Body Weight Change + Hepatic: Liver: Focal Liver Necrosis + Hepatic: …
[12] = M, Blood: Monocytes + Liver: Aspartate Aminotransferase (AST), Blood
[13] = M, Heart: Heart Weight, Absolute + Liver: Focal Liver Necrosis + Lung: Cholesterol Cleft/Granuloma in Lung

FC(Cl)C(F)(F)F (centres undefined) [2-Chloro-1,1,1,2-tetrafluoroethane]
NEL (Mus musculus; F, Adrenal: Adrenal Gland Weight, Absolute + Adrenal: Adrenal Gland Weight, Relative + Blood: Hematology, Unspecified + Brain: Brain Weight, …): 279000 mg/m3
LOAEL (Mus musculus; F, Cardiovascular: Heart: Heart Weight, Absolute + Cardiovascular: Heart: Heart Weight, Relative + Endocrine: Adrenal: Adrenal Gland Weight, …): 83700 mg/m3
LOAEL (Mus musculus; [1]): 279000 mg/m3
NOAEL (Mus musculus; [1]): 83700 mg/m3
LOAEL (Mus musculus; [2]): 83700 mg/m3
NOAEL (Mus musculus; [2]): 27900 mg/m3
LEL (Mus musculus; F, Whole Body: Mortality): 27900 mg/m3
NEL (Mus musculus; M, Adrenal: Adrenal Gland Weight, Absolute + Adrenal: Adrenal Gland Weight, Relative + Blood: Hematology, Unspecified + Brain: Brain Weight, …): 279000 mg/m3
LEL (Mus musculus; [3]): 83700 mg/m3
NEL (Mus musculus; [3]): 27900 mg/m3
LOAEL (Mus musculus; M, Cardiovascular: Heart: Heart Weight, Absolute + Cardiovascular: Heart: Heart Weight, Relative + Endocrine: Adrenal: Adrenal Gland Weight, …): 83700 mg/m3
LOAEL (Mus musculus; [4]): 279000 mg/m3
NOAEL (Mus musculus; [4]): 83700 mg/m3
LEL (Mus musculus; M, Heart: Heart Weight, Relative + Whole Body: Body Weight Change): 27900 mg/m3
LOAEL (Mus musculus; [5]): 83700 mg/m3
NOAEL (Mus musculus; [5]): 27900 mg/m3
LOAEL (Rattus norvegicus; F, Cardiovascular: Aorta: Aorta Histopathology + Cardiovascular: Heart: Heart Histopathology + Cardiovascular: Heart: Heart Weight, Absolute + …): 279000 mg/m3
LOAEL (Rattus norvegicus; [6]): 279000 mg/m3
NOAEL (Rattus norvegicus; [6]): 55800 mg/m3
LOAEL (Rattus norvegicus; F, Hepatic: Blood: Globulin (G) + Hepatic: Liver: Alanine Aminotransferase (ALT) + Hepatic: Liver: Albumin (A) + Hepatic: Liver: Alkaline …): 11200 mg/m3
NEL (Rattus norvegicus; F, Adrenal: Adrenal Gland Histopathology + Adrenal: Adrenal Gland Weight, Absolute + Aorta: Aorta Histopathology + Brain: Brain Histopathology…): 279000 mg/m3
NEL (Rattus norvegicus; F, Blood: Abnormal Lymphocytes + Blood: Bands + Blood: Basophils + Blood: Calcium (CA), Blood + Blood: Globulin (G), Blood + Blood: Glucose (…): 279000 mg/m3
LEL (Rattus norvegicus; F, Blood: Chloride (CL), Blood + Kidney: Creatine Kinase (CK), Blood + Kidney: Creatinine (CREAT), Blood): 11200 mg/m3
LEL (Rattus norvegicus; [7]): 55800 mg/m3
NEL (Rattus norvegicus; [7]): 11200 mg/m3
LEL (Rattus norvegicus; [8]): 279000 mg/m3
NEL (Rattus norvegicus; [8]): 55800 mg/m3
LEL (Rattus norvegicus; [9]): 55800 mg/m3
NEL (Rattus norvegicus; [9]): 11200 mg/m3
LEL (Rattus norvegicus; [10]): 279000 mg/m3
NEL (Rattus norvegicus; [10]): 55800 mg/m3
LEL (Rattus norvegicus; F, Whole Body: Body Weight Change + Whole Body: Terminal Body Weight, Absolute): 11200 mg/m3
LOAEL (Rattus norvegicus; M, Cardiovascular: Aorta: Aorta Histopathology + Cardiovascular: Heart: Heart Histopathology + Cardiovascular: Heart: Heart Weight, Absolute + …): 279000 mg/m3
LOAEL (Rattus norvegicus; [11]): 279000 mg/m3
NOAEL (Rattus norvegicus; [11]): 55800 mg/m3
LOAEL (Rattus norvegicus; M, Hepatic: Blood: Globulin (G) + Hepatic: Liver: Alanine Aminotransferase (ALT) + Hepatic: Liver: Albumin (A) + Hepatic: Liver: Alkaline …): 11200 mg/m3
NEL (Rattus norvegicus; M, Adrenal: Adrenal Gland Histopathology + Adrenal: Adrenal Gland Weight, Absolute + Aorta: Aorta Histopathology + Brain: Brain Histopathology…): 279000 mg/m3
NEL (Rattus norvegicus; M, Blood: Abnormal Lymphocytes + Blood: Bands + Blood: Basophils + Blood: Calcium (CA), Blood + Blood: Eosinophils + Blood: Globulin (G), Blood…): 279000 mg/m3
LEL (Rattus norvegicus; M, Blood: Chloride (CL), Blood + Liver: Alanine Aminotransferase (ALT), Blood): 11200 mg/m3
LEL (Rattus norvegicus; [12]): 55800 mg/m3
NEL (Rattus norvegicus; [12]): 11200 mg/m3
LEL (Rattus norvegicus; [13]): 279000 mg/m3
NEL (Rattus norvegicus; [13]): 55800 mg/m3
LEL (Rattus norvegicus; M, Kidney: Renal Tubular Pigment + Whole Body: Body Weight Change + Whole Body: Terminal Body Weight, Absolute): 55800 mg/m3
